Data as given in article PMC6104039 (Nature Communications, 2018).
Values joined by “and” are separate entries in the source; they are usually repeats but may differ in a detail not shown here. Equal values may be shown once.

Tested on: HEK293 cells
Assay: Endogenous ceramide, HexCer and SM levels in cells treated 24 h, targeted LC-MS/MS
Type: cell-based
Settings: 24 h
Description: Lipids were then extracted using MTBE/methanol/water as described above.
HEK293 cell culture experiment: Levels of each lipid in P053-treated HEK293 cells were normalised to the mean of the vehicle control group, and each concentration was compared to the control using ANOVA with Dunnett’s post-test. P values were adjusted for multiple comparisons in GraphPad PRISM.
Supplementary Figure 1. Ceramide, SM, and HexCer levels in HEK293 cells treated with
P053. Absolute lipid levels were determined by targeted LC-MS/MS, relative to external
standard curves. Results are mean ± SEM (n = 4) from one of two identical experiments.
Statistically significant results, based on two independent experiments, are as indicated in
Figure 2b-d. Raw data for these figures is provided in Supplementary Data File 1.

## C[C@@](N)(CO)CCc1ccc(OCc2ccc(Cl)c(Cl)c2)cc1 [P053, (S)-2-amino-4-(4-(3,4-dichlorobenzyloxy)phenyl)-2-methylbutan-1-ol]
100 nM
  reduction of C18:0 ceramide: 53%
  C18 HexCer: selectively reduced
  C18 SM: selectively reduced
  C24:0 ceramide: minor increase
  other forms of ceramide: No other forms of ceramide were reduced
HEK293 cells, P053 10 nM
  14:0 SM level: 86.4023 percentage of the vehicle control group and 87.5076 percentage of the vehicle control group and 111.4 percentage of the vehicle control group and 123.229 percentage of the vehicle control group and 107.24 percentage of the vehicle control group and 105.555 percentage of the vehicle control group and 105.116 percentage of the vehicle control group and 89.1667 percentage of the vehicle control group
  16:0 Cer level: 108.507 percentage of the vehicle control group and 85.9381 percentage of the vehicle control group and 87.0921 percentage of the vehicle control group and 116.695 percentage of the vehicle control group and 104.33 percentage of the vehicle control group and 104.933 percentage of the vehicle control group and 106.707 percentage of the vehicle control group and 101.056 percentage of the vehicle control group
  16:0 HexCer level: 83.0725 percentage of the vehicle control group and 87.9406 percentage of the vehicle control group and 128.577 percentage of the vehicle control group and 99.1213 percentage of the vehicle control group and 108.606 percentage of the vehicle control group and 107.974 percentage of the vehicle control group and 99.8354 percentage of the vehicle control group and 80.4305 percentage of the vehicle control group
  16:0 SM level: 90.9817 percentage of the vehicle control group and 95.8078 percentage of the vehicle control group and 105.689 percentage of the vehicle control group and 116.265 percentage of the vehicle control group and 95.5779 percentage of the vehicle control group and 88.0621 percentage of the vehicle control group and 88.5464 percentage of the vehicle control group and 91.6422 percentage of the vehicle control group
  16:1 SM level: 86.5462 percentage of the vehicle control group and 91.7143 percentage of the vehicle control group and 104.066 percentage of the vehicle control group and 119.449 percentage of the vehicle control group and 101.997 percentage of the vehicle control group and 91.4576 percentage of the vehicle control group and 97.8179 percentage of the vehicle control group and 89.4979 percentage of the vehicle control group
  18:0 Cer level: 75.1597 percentage of the vehicle control group and 77.1381 percentage of the vehicle control group and 83.1016 percentage of the vehicle control group and 101.889 percentage of the vehicle control group and 100.455 percentage of the vehicle control group and 110.825 percentage of the vehicle control group and 90.177 percentage of the vehicle control group and 106.32 percentage of the vehicle control group
  18:0 SM level: 87.3577 percentage of the vehicle control group and 90.1399 percentage of the vehicle control group and 117.324 percentage of the vehicle control group and 82.3337 percentage of the vehicle control group and 88.9916 percentage of the vehicle control group and 83.1732 percentage of the vehicle control group and 88.0529 percentage of the vehicle control group
  18:1 SM level: 90.5796 percentage of the vehicle control group and 93.2037 percentage of the vehicle control group and 88.8318 percentage of the vehicle control group and 108.011 percentage of the vehicle control group and 95.5914 percentage of the vehicle control group and 79.238 percentage of the vehicle control group and 78.9032 percentage of the vehicle control group and 84.4686 percentage of the vehicle control group
  22:0 Cer level: 104.639 percentage of the vehicle control group and 100.078 percentage of the vehicle control group and 73.3754 percentage of the vehicle control group and 101.613 percentage of the vehicle control group and 114.746 percentage of the vehicle control group and 118.068 percentage of the vehicle control group and 114.641 percentage of the vehicle control group and 113.437 percentage of the vehicle control group
  22:0 HexCer level: 98.6933 percentage of the vehicle control group and 87.3308 percentage of the vehicle control group and 106.948 percentage of the vehicle control group and 113.522 percentage of the vehicle control group and 107.776 percentage of the vehicle control group and 119.187 percentage of the vehicle control group and 120.197 percentage of the vehicle control group and 88.6877 percentage of the vehicle control group
  22:0 SM level: 77.9336 percentage of the vehicle control group and 82.0524 percentage of the vehicle control group and 72.1049 percentage of the vehicle control group and 117.359 percentage of the vehicle control group and 120.117 percentage of the vehicle control group and 100.918 percentage of the vehicle control group and 103.279 percentage of the vehicle control group and 105.704 percentage of the vehicle control group
  22:1 SM level: 103.42 percentage of the vehicle control group and 102.614 percentage of the vehicle control group and 99.3902 percentage of the vehicle control group and 105.25 percentage of the vehicle control group and 111.738 percentage of the vehicle control group and 105.36 percentage of the vehicle control group and 88.0812 percentage of the vehicle control group and 91.3619 percentage of the vehicle control group
  24:0 HexCer level: 87.0807 percentage of the vehicle control group and 93.0525 percentage of the vehicle control group and 81.1451 percentage of the vehicle control group and 103.31 percentage of the vehicle control group and 112.306 percentage of the vehicle control group and 129.078 percentage of the vehicle control group and 103.585 percentage of the vehicle control group and 92.4822 percentage of the vehicle control group
  24:0 SM level: 97.1928 percentage of the vehicle control group and 98.2718 percentage of the vehicle control group and 75.7857 percentage of the vehicle control group and 112.798 percentage of the vehicle control group and 112.334 percentage of the vehicle control group and 114.303 percentage of the vehicle control group and 127.22 percentage of the vehicle control group and 98.002 percentage of the vehicle control group
  24:1 Cer level: 105.077 percentage of the vehicle control group and 87.804 percentage of the vehicle control group and 67.6975 percentage of the vehicle control group and 121.49 percentage of the vehicle control group and 108.722 percentage of the vehicle control group and 121.479 percentage of the vehicle control group and 112.469 percentage of the vehicle control group and 111.695 percentage of the vehicle control group
  24:1 HexCer level: 100.2 percentage of the vehicle control group and 101.908 percentage of the vehicle control group and 107.061 percentage of the vehicle control group and 109.845 percentage of the vehicle control group and 113.174 percentage of the vehicle control group and 115.061 percentage of the vehicle control group and 107.49 percentage of the vehicle control group and 96.3768 percentage of the vehicle control group
